Non-standard residues stand in square brackets, D forms with d. Residues, ends and D or L forms follow the SMILES beside them. *: point of attachment. Hexanoyl = CCCCCC(=O)*; Ahx = NCCCCCC(=O)O
How the values were obtained:
IL-1β = IL-1β release in LPS-challenged THP-1 macrophages (HTRF); assay type: cell-based, human; conditions: 1 µM, 20 min pretreatment, LPS 50 ng/mL 24 h, vs LPS + vehicle
Protocol: To determine the effect of fosgo-AM on LPS-induced cytokine release, we sought to determine the levels of interleukin-1β (IL-1β), interleukin-6 (IL-6), and tumor necrosis factor-α (TNF-α) in LPS-challenged THP-1–differentiated macrophages in the presence and absence of fosgo-AM. THP-1 monocytes were grown at 37 °C, 5% CO2 in Roswell Park Memorial Institute (RPMI) medium + 10% FBS until approximately 80% confluent. Cells were seeded in polystyrene-treated 96-well cell culture plates at approximately 50,000 cells/well in 100-µL complete media. 100 µL Phorbol myristate acetate was then added to each well for a final concentration of 100 ng/mL. The plate was then incubated for 3 days at 37 °C, 5% CO2 to prime the monocytes into macrophages. […] For cytokine quantification, cell culture supernatant was assayed by HTRF kits to assess levels of IL-1β (Human IL-1β kit, #62HIL1BPEG, Cisbio, Codolet, France) and IL-6 (Human IL-6 kit, 62HIL06PET, Cisbio, Codolet, France), and by ELISA (Human TNF-α ELISA kit, KHC3011, ThermoFisher, Waltham, Massachusetts) to determine the levels of TNF-α. […] Fluorescence emission at 2 different wavelengths (665 nm and 620 nm) were measured on an Envision plate reader (PerkinElmer, Waltham, Massachusetts), and HTRF ratio of the acceptor and donor emission signals for each well was calculated as follows: HTRF ratio = (665 nm/620 nm) × 10,000. […]

[1] = system: primary rat hippocampal neurons; experiment: Neurite outgrowth assay (beta-III tubulin staining); assay type: cell-based; conditions: 4 days, vs vehicle
Protocol: On day 0, rat hippocampal neurons from newborn pups were isolated and cultured in brain neuronal culture medium (neurobasal medium supplemented with 5% FBS, 2% B-27 supplement, and 0.003% gentamycin) at 37 °C under 5% CO2. At 1 day in vitro (DIV1), cells were transferred to a poly-D-lysine–coated 24-well plate at approximately 10,000 cells/well. Cells were then grown in […] of serum-free medium and treated with the following: 0.1% dimethyl sulfoxide (DMSO; vehicle), 10 nM dihydrotestosterone (positive control), 10 nM fosgo-AM, 1 nM fosgo-AM, 5 ng/ml HGF, or 5 ng/ml HGF + 1 nM fosgo-AM. All treatments contained a final concentration of 0.1% DMSO. For the neurite outgrowth assay, treatment media were refreshed on DIV3, and cells were processed for analysis on DIV4. For the synaptogenesis assay, treatment media were refreshed on DIV3 and DIV6, and cells were processed for analysis on DIV8. Processing for both the neurite outgrowth and the synaptogenesis assays was performed as follows: media were removed, and cells were fixed with 100% methanol for 20 min at RT before methanol was aspirated and each well was washed twice with Dulbecco’s phosphate-buffered saline (DPBS). Cells were permeabilized using 0.02% […] (ThermoFisher, Waltham, Massachusetts) in DPBS for 2 min at RT without shaking, and plates were blocked with 5% bovine serum albumin (BSA) in DPBS for 1 h at RT. Plates were then incubated overnight at 4 °C with gentle shaking with use of beta-III tubulin antibody (ab201740; Abcam, Boston, Massachusetts) to assess neurite outgrowth or with use of 1:500 rabbit anti–synaptobrevin-II antibody (Synaptic Systems, cat# 104 202, Göttingen, Germany) to assess synaptogenesis. After overnight incubation, plates were washed 3 times with DPBS and incubated for 1 h at RT with use of anti–rabbit immunoglobulin G–secondary antibody conjugated to Alexa Fluor 488 (Life Technologies, Carlsbad, California, 1:500). After 5 DPBS washes, coverslips were mounted on slides using fluorescent mounting medium (Golden Bridge International Labs, Bothell, Washington, cat# E19-s). Imaging was performed using the BX43 Olympus microscope driven by the standard “CellSens” software by Olympus. […] Ten images of single cells from a total of 2 assays were analyzed using NeuroJ plug-in for ImageJ to assess neurite outgrowth, as neurite length and the number of branches per neuron were counted for each cell. For the synaptogenesis assay, synaptic count (number of synapses) and synaptic strength (relative abundance of presynaptic vesicles per synapse as measured by synaptobrevin-II fluorescence intensity) were quantified for each cell. Data were assessed for normality (Shapiro–Wilk) and homoscedasticity (Brown-Forsythe). […]

## CCCCCC(=O)N[C@@H](Cc1ccc(O)cc1)C(=O)N[C@H](C(=O)NCCCCCC(N)=O)[C@@H](C)CC [fosgo-AM] (Hexanoyl-Tyr-Ile-[Ahx]-NH2)
IL-1β
  IL-1β release: significant decrease
[1]; 1 nM fosgo-AM + 5 ng/mL HGF
  neurite length per cell: significantly increased neurite length per cell
[1]; 10 nM
  neurite length per cell: significant increase in neurite length per cell
[1]; HGF ± fosgo-AM
  number of neurite branches: did not reach statistical significance

— PMC10121968, “Fosgonimeton, a Novel Positive Modulator of the HGF/MET System, Promotes Neurotrophic and Procognitive Effects in Models of Dementia” (Neurotherapeutics, 2022)
